# Several values for one entry are separate records, joined by “and”; a condition that tells them apart may be missing. Equal entries are not always repeated. Where two headings read alike, the source gives them in different places. Starred links: 1 amine or outer side, 2 acyl side, 3 side chain; linkers in the order of their positions; H or OH if unused. Positions of bridges follow the written chain, without caps; N, C: chain ends. Non-standard residues stand in square brackets, D forms with d. Residues, ends and D or L forms follow the SMILES beside them. Chains are numbered I, II in the order given. Actinocin(9to1) = Cc1c2oc3c(C)ccc(C(=O)[*:1])c3nc-2c(C(=O)[*:2])c(N)c1=O; NMeV = CN[C@H](C(=O)O)C(C)C; Sar = CNCC(=O)O
# What was measured:
# [1] = system: Medial smooth muscle cells (SMC) from rat aorta; assay: Inhibition of SMC proliferation (thymidine incorporation); format: cell-based; details: read-out: IC50 (concentration at which 50% of the cells stop proliferating)
# Protocol: Medial smooth muscle cells (SMC) were isolated from rat aorta and cultured according to explant methods known to one of ordinary skill in the art. Cells were harvested via trypsinization and subcultivated. Cells were identified as vascular SMC through their characteristic hill-and-valley growth pattern as well as indirect immunofluorescence with monoclonal anti SMC α-actin. Studies were performed with cells at passage 3-4. SMC monlayers were established on 24 well culture dishes, scrape wounded and treated with actinomycin D, mytomycin and docetaxel. The cells were exposed to the drug solution of different concentrations for 2 hours and then washed with buffered saline solution. The proliferation of the cells was quantified by standard technique of thymidine incorporation.
# The IC50 (concentration at which 50% of the cells stop proliferating) of actinomycin D was 10^−9M as compared to 5×10^−5M for mitomycin and 10^−6M for docetaxel.
# [2] = system: neointimal formation in the coronary arteries; assay: Porcine coronary stent injury model, drug delivered with microporous balloon catheter; format: in vivo, Domestic swine
# Protocol: Porcine coronary models were used to assess the degree of the inhibition of neointimal formation in the coronary arteries of a porcine stent injury model by Actinomycin D, delivered with a microporous balloon catheter (1×10^6 pores/cm^2 with size ranging from 0.2-0.8 micron).
# The preclinical animal testing was performed in accordance with the NIH Guide for Care and Use of Laboratory Animals. Domestic swine were utilized to evaluate effect of the drug on the inhibition of the neointimal formation. Each testing procedure, excluding the angiographic analysis at the follow-up endpoints, was conducted using sterile techniques. During the study procedure, the activated clotting time (ACT) was monitored regularly to ensure appropriate anticoagulation. Base line blood samples were collected for each animal before initiation of the procedure. Quantitative coronary angiographic analysis (QCA) and intravascular ultrasound (IVUS) analysis was used for vessel size assessment.
# The vessels at the sites of the delivery were denuded by inflation of the PTCA balloons to 1:1 balloon to artery ratio and moving the balloons back and forth 5 times. Actinomycin D was delivered to the denuded sites at 3.5 atm (3.61 kg/sq. cm) for 2 minutes using the microporous balloon catheters before stent deployment. The average volume of delivery was about 3.3+/−1.2 ml. Following drug delivery, stents were deployed at the delivery site such that final stent to artery ratio was 1.1:1.
# QCA and IVUS analyses were used for stent deployment guidance. Pre-stenting IVUS measurements of the lumen size at the targeted vessel sites were performed for determination of the balloon (size) inflation pressure. Quantitative analysis of the stented coronary arteries to compare pre-stenting, post-stenting, follow-up minimal luminal diameters, stent recoil, and balloon/stent to artery ratio were performed. Following stent implantation and final angiogram, all devices were withdrawn and the wounds closed; the animals were allowed to recover from anesthesia as managed by the attending veterinarian or animal care professionals at the research center.
# Upon return to the research laboratory at the 28-day endpoint, angiographic assessments were performed. Coronary artery blood flow was assessed and the stented vessels were evaluated to determine minimal lumen diameter. The animals were euthanized following this procedure at the endpoint. Following euthanasia, the hearts were pressure perfusion fixed with formalin and prepared for histological analysis, encompassing light microscopy, and morphometry. Morphometric analysis of the stented arteries included assessment of the position of the stent struts and determination of vessel/lumen areas, percent (%) stenosis, injury scores, intimal and medial areas and intima/media ratios. Percent stenosis is quantitated by the following equation: 100(IEL area−lumen area)/IEL area where IEL is the internal elastic lamia.
# The control group of animals received delivery of water instead of the drug. The test group of animals received actinomycin D in two different concentration of 10^−5M and 10^−4M. […] FIGS. 2A and 2B illustrate sample pictures of the histology slides of the coronary vessels from the control and the Dose 1 group, respectively.
# [3] = system: porcine coronary arteries (EEL/IEL area); assay: Positive remodeling by stents coated with EVAL impregnated with actinomycin D in porcine coronary arteries; format: in vivo
# Text: “Positive remodeling” is generally defined as the ability of the vessel walls to structurally adapt, by increasing in lumen size, to chronic stimuli. A positively remodeled lumen wall has a greater diameter or size as compared to a lumen wall which has not been subjected to the remodeling effect. Accordingly, the flow of blood through the remodeled site is increased—flow which would have otherwise been reduced because of, for example, the presence of plaque build-up or migration and proliferation of cells. The index of remodeling is defined by the ratio of the area circumscribed by the external elastic lamia (EEL) of the lesion site to the area circumscribed by the EEL of a reference site. As a result of the positive remodeling of the EEL, the internal elastic lamina (IEL), in response, can also increases in area or diameter.
# In vivo data is provided illustrated positive remodeling caused by the application of actinomycin D. Stents coated with EVAL impregnated with actinomycin D and a control group of stents coated with EVAL free from actinomycin D were implanted in porcine coronary arteries. The animals were sacrificed at the end of 28 days. […] The index of remodeling was 1.076 (8.54/7.94).
# FIGS. 3A and 3B illustrate sample pictures of the histology slides of the coronary vessels from the control group 64 RCA ([…]) and the actinomycin D loaded stent group 68 LAD (Left Anterior Descending), respectively. The stent used was an Advanced Cardiovascular Systems Multi-Link Duet™ (stainless steel). As is illustrated by FIG. 3B, the positive remodeling of IEL 10, caused by the application of actinomycin D, creates a gap between stent struts 12 and IEL 10. Thrombus deposites, illustrated by reference number 14, are formed in the gap over time. The use of a self-expandable stent eliminates the formation of the gap as the stent self-expands in response to the positive remodeling of IEL. Thrombus deposits can be, accordingly, eliminated.
# [4] = Dose 1, 1E−05 M, n = 30, 28-day endpoint
# [5] = Dose 2, 1E−04 M, n = 21, 28-day endpoint
# [6] = average of 24 vessel sections, 28 days
# [7] = one value per vessel section (ID # in the cell to the left), 28 days
# [8] = rat aortic SMC, scrape wounded, 2 hours drug exposure, thymidine incorporation
SMILES,"IC50 ([1]; Rattus norvegicus, 2 h) [µM]","Percent Diameter Stenosis, angiographic data (QCA) ([2]; Dose 1, 1E−05 M, n = 10, 28-day endpoint)","Percent Stenosis (IEL area-lumen area)/IEL area, histomorphometric data [2, 4]","Residual Lumen (Lumen area)/IEL area, histomorphometric data [2, 4]","Percent Diameter Stenosis, angiographic data (QCA) ([2]; Dose 2, 1E−04 M, n = 7, 28-day endpoint)","Percent Stenosis (IEL area-lumen area)/IEL area, histomorphometric data [2, 5]","Residual Lumen (Lumen area)/IEL area, histomorphometric data [2, 5]","EEL area compared with control vessels ([3]; 28 days, actinomycin D-loaded vessels vs control vessels)",AVG % EEL growth ([3]; ActD vs EVAL) [%],AVG % IEL growth ([3]; ActD vs EVAL) [%],"index of remodeling ([3]; EEL area ratio 8.54/7.94, actinomycin D-loaded vs EVAL control)","EEL Area, AVG [3, 6] [mm^2]","IEL Area, AVG [3, 6] [mm2]","EEL Area, individual vessel section [3, 7]","IEL Area, individual vessel section [3, 7]","IC50 [1, 8] [µM]"
"Cc1c2oc3c(C)ccc(C(=O)N[C@@H]4C(=O)N[C@H](C(C)C)C(=O)N5CCC[C@H]5C(=O)N(C)CC(=O)N(C)[C@@H](C(C)C)C(=O)O[C@@H]4C)c3nc-2c(C(=O)N[C@@H]2C(=O)N[C@H](C(C)C)C(=O)N3CCC[C@H]3C(=O)N(C)CC(=O)N(C)[C@@H](C(C)C)C(=O)O[C@@H]2C)c(N)c1=O [actinomycin D] (I: T[dV]P[Sar][NMeV] / II: T[dV]P[Sar][NMeV]; ester I:1-I:C, II:1-II:C; linker I:N-II:N via Actinocin(9to1))",0.001,36.8 +/− 9.7%,51.8 +/− 13.8%,0.49 +/− 0.14,32.3+/−11.7%,54.1 +/− 11.7%,0.46 +/− 0.08,statistically significantly greater,7.486,13.18,1.076,8.5425,7.4727,7.4498 mm^2 and 8.2509 mm^2 and 7.7342 mm^2 and 7.9207 mm^2 and 6.9926 mm^2 and 8.3883 mm^2 and 7.8546 mm^2 and 9.2545 mm^2 and 9.2515 mm^2 and 8.7854 mm^2 and 9.5164 mm^2 and 9.1504 mm^2 and 9.6679 mm^2 and 9.1237 mm^2 and 9.9849 mm^2 and 9.4765 mm^2 and 7.4424 mm^2 and 9.1462 mm^2 and 8.9504 mm^2 and 8.9117 mm^2 and 8.7533 mm^2 and 7.3249 mm^2 and 7.1061 mm^2 and 8.5830 mm^2,6.3785 mm2 and 7.5206 mm2 and 6.9992 mm2 and 6.9632 mm2 and 6.0418 mm2 and 7.4794 mm2 and 6.2324 mm2 and 8.3785 mm2 and 8.5819 mm2 and 8.0964 mm2 and 8.6879 mm2 and 8.0914 mm2 and 8.7181 mm2 and 8.0273 mm2 and 8.5222 mm2 and 8.3796 mm2 and 6.4219 mm2 and 7.7757 mm2 and 7.5392 mm2 and 7.6573 mm2 and 6.9749 mm2 and 6.2815 mm2 and 5.9760 mm2 and 7.6195 mm2,–
CC(=O)O[C@@]12CO[C@@H]1C[C@H](O)[C@@]1(C)C(=O)[C@H](O)C3=C(C)[C@@H](OC(=O)[C@H](O)[C@@H](NC(=O)OC(C)(C)C)c4ccccc4)C[C@@](O)([C@@H](OC(=O)c4ccccc4)[C@H]21)C3(C)C [docetaxel],–,–,–,–,–,–,–,–,–,–,–,–,–,–,–,1
CO[C@@]12[C@H](COC(N)=O)C3=C(C(=O)C(C)=C(N)C3=O)N1C[C@@H]1N[C@@H]12 [mitomycin],–,–,–,–,–,–,–,–,–,–,–,–,–,–,–,50

# Reference: patent US7651695B2, “Medicated stents for the treatment of vascular disease” (Advanced Cardiovascular Systems, Inc., priority 2001, dated 2010)
